Experimental data from PubChem BioAssay (NCI).
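How tested: cells in 96-well plates exposed to compound for 48 hours at five concentrations. GI50 = concentration required for 50% inhibition of growth. The concentration for full growth arrest is given as TGI.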

Experiments:
Assay in all cases: NCI-60 cell line screen, 48 h
[1] = test system: 786-0 renal
[2] = test system: A498 renal
[3] = test system: A549 NSCLC
[4] = test system: ACHN renal
[5] = test system: BT-549 breast
[6] = test system: CCRF-CEM leukemia
[7] = test system: COLO 205 colon
[8] = test system: DU-145 prostate
[9] = test system: EKVX NSCLC
[10] = test system: HCC-2998 colon
[11] = test system: HCT-116 colon
[12] = test system: HCT-15 colon
[13] = test system: HL-60(TB) leukemia
[14] = test system: HOP-62 NSCLC
[15] = test system: HOP-92 NSCLC
[16] = test system: HS 578T breast
[17] = test system: HT29 colon
[18] = test system: IGROV1 ovarian
[19] = test system: K-562 leukemia
[20] = test system: KM12 colon
[21] = test system: LOX IMVI melanoma
[22] = test system: M14 melanoma
[23] = test system: MALME-3M melanoma
[24] = test system: MCF7 breast
[25] = test system: MDA-MB-231 breast
[26] = test system: MDA-MB-435
[27] = test system: MOLT-4 leukemia
[28] = test system: NCI-H226 lung
[29] = test system: NCI-H23 lung
[30] = test system: NCI-H460 lung
[31] = test system: NCI-H522 lung
[32] = test system: NCI/ADR-RES ovarian
[33] = test system: OVCAR-4 ovarian
[34] = test system: OVCAR-5 ovarian
[35] = test system: PC-3 prostate
[36] = test system: RPMI-8226 leukemia
[37] = test system: RXF 393 renal
[38] = test system: SF-268 CNS
[39] = test system: SF-295 CNS
[40] = test system: SF-539 CNS
[41] = test system: SK-MEL-28 melanoma
[42] = test system: SK-MEL-5 melanoma
[43] = test system: SK-OV-3 ovarian
[44] = test system: SN12C renal
[45] = test system: SNB-19 CNS
[46] = test system: SNB-75 CNS
[47] = test system: SR leukemia
[48] = test system: SW-620 colon
[49] = test system: T-47D breast
[50] = test system: TK-10 renal
[51] = test system: U251 CNS
[52] = test system: UACC-257 melanoma
[53] = test system: UACC-62 melanoma
[54] = test system: UO-31 renal

Compound `CCCc1n(Cc2ccc3ccccc3c2)cc[n+]1Cc1ccc2ccccc2c1` has a GI50 [1] of 1520 nM, a TGI [1] of 2910 nM and a GI50 [2] of 938 nM. For the same compound, the TGI [2] was 3.78 µM, the GI50 [3] was 2670 nM and the TGI [3] was 12.1 µM. It also gave a GI50 [4] of 3.87 µM, a TGI [4] of 14.2 µM and a GI50 [5] of 772 nM. It also gave a TGI [5] of 2160 nM, a GI50 [6] of 1480 nM and a TGI [6] of 4.93 µM. It also gave a GI50 [7] of 458 nM, a TGI [7] of 1720 nM and a GI50 [8] of 1490 nM. It also gave a TGI [8] of 7.25 µM, a GI50 [9] of 1710 nM and a TGI [9] of 11.4 µM. The GI50 [10] was 716 nM, the TGI [10] was 2070 nM and the GI50 [11] was 971 nM. The TGI [11] was 2170 nM, the GI50 [12] was 3.69 µM and the TGI [12] was 16.1 µM. For the same compound, the GI50 [13] was 321 nM, the TGI [13] was 1170 nM and the GI50 [14] was 1260 nM. For the same compound, the TGI [14] was 2800 nM, the GI50 [15] was 863 nM and the TGI [15] was 2660 nM. For the same compound, the GI50 [16] was 1750 nM, the TGI [16] was 6.67 µM and the GI50 [17] was 513 nM. For the same compound, the TGI [17] was 1890 nM, the GI50 [18] was 779 nM and the TGI [18] was 2420 nM. The GI50 [19] was 414 nM, the TGI [19] was 1750 nM and the GI50 [20] was 1010 nM. It also gave a TGI [20] of 2380 nM, a GI50 [21] of 926 nM and a TGI [21] of 2190 nM. It also gave a GI50 [22] of 1100 nM, a TGI [22] of 2530 nM and a GI50 [23] of 876 nM. The TGI [23] was 2580 nM, the GI50 [24] was 1110 nM and the TGI [24] was 2770 nM. It also gave a GI50 [25] of 1060 nM, a TGI [25] of 2540 nM and a GI50 [26] of 564 nM. For the same compound, the TGI [26] was 2060 nM, the GI50 [27] was 1460 nM and the TGI [27] was 4.07 µM. For the same compound, the GI50 [28] was 1310 nM, the TGI [28] was 3.92 µM and the GI50 [29] was 521 nM. For the same compound, the TGI [29] was 2510 nM, the GI50 [30] was 1220 nM and the TGI [30] was 3.01 µM. The GI50 [31] was 378 nM, the TGI [31] was 1690 nM and the GI50 [32] was 17.1 µM. It also gave a TGI [32] of 44.3 µM, a GI50 [33] of 398 nM and a TGI [33] of 1610 nM. The GI50 [34] was 1430 nM, the TGI [34] was 3.32 µM and the GI50 [35] was 1170 nM. It also gave a TGI [35] of 3.49 µM, a GI50 [36] of 399 nM and a TGI [36] of 1670 nM. The GI50 [37] was 1130 nM, the TGI [37] was 2490 nM and the GI50 [38] was 1080 nM. The TGI [38] was 2520 nM, the GI50 [39] was 1440 nM and the TGI [39] was 3.34 µM. For the same compound, the GI50 [40] was 1100 nM, the TGI [40] was 2850 nM and the GI50 [41] was 1060 nM. The TGI [41] was 2520 nM, the GI50 [42] was 485 nM and the TGI [42] was 1620 nM. It also gave a GI50 [43] of 1740 nM, a TGI [43] of 4.95 µM and a GI50 [44] of 1070 nM. For the same compound, the TGI [44] was 2530 nM, the GI50 [45] was 869 nM and the TGI [45] was 2260 nM. It also gave a GI50 [46] of 514 nM, a TGI [46] of 3.04 µM and a GI50 [47] of 597 nM. The TGI [47] was 2620 nM, the GI50 [48] was 1340 nM and the TGI [48] was 3.33 µM. It also gave a GI50 [49] of 377 nM, a TGI [49] of 3.17 µM and a GI50 [50] of 1280 nM. For the same compound, the TGI [50] was 2700 nM, the GI50 [51] was 765 nM and the TGI [51] was 2110 nM. The GI50 [52] was 466 nM, the TGI [52] was 1760 nM and the GI50 [53] was 647 nM. It also gave a TGI [53] of 2020 nM, a GI50 [54] of 2560 nM and a TGI [54] of 11.6 µM.
